Results from ChEMBL document CHEMBL4425174, “Design, synthesis and optimization of novel Alk5 (activin-like kinase 5) inhibitors” (Bioorg Med Chem Lett, 2016).

assay: Oral bioavailability in rat; format: ADME, organism-based; details: in vivo

bioavailability [%] | Compound
13 | Fc1cc(F)c(-c2cc(Nc3ccncc3)c3cc[nH]c3n2)cc1Cl
65 | Fc1ccc(-c2cc(Nc3ccncc3)c3cc[nH]c3n2)c(F)c1
17 | C[C@H](O)CNC(=O)c1cnccc1Nc1cc(-c2cc(Cl)ccc2F)nc2[nH]ccc12
62 | Cc1cnc(-c2cc(Cl)ccc2F)cc1-n1c(=O)n(CC(N)=O)c2cnccc21 [TP-008]
